We go through 4 compounds from patent US20030083338A1, “Compositions and methods for management of serotonin-mediated disorders” (priority 2001, published 2003).

In general, IC50 refers to the concentration needed to halve the response being measured.

Molecules are shown by their SMILES.

One data set relates to norepinephrine uptake. In words: Norepinephrine uptake functional assay (rat hypothalamus synaptosomes). To be noted: read-out: Monoamine Neuronal Transport IC50, NE uptake. Type of data set: biochemical. As for the experimental part:
Characterization of norepinephrine uptake is performed using synaptosomes isolated at Cerep in a 0.32 M sucrose buffer from a male Wistar rat hypothalamus. The uptake of radiolabeled norepinephrine by synaptosomes (100 μg of proteins/point) is allowed by incubating them for 20 minutes at 37° C. in presence of test compounds and [3H]-norepinephrine (0.1 μCi/point). The experiment is performed in a deep well.
Synaptosomes and [3H]-norepinephrine are prepared in a Krebs buffer pH 7.4 containing 25 mM NaHCO3, 11 mM glucose and 50 μM ascorbic acid. This incubation buffer is oxygenated during 5 minutes before incubation. Basal control is incubated for 20 minutes at 4° C. in order to avoid any uptake. Following this incubation the uptake is stopped by filtration through an “unifilter 96-wells GFB” Packard plate washed with Krebs buffer containing 25 mM NaHCO3 in order to eliminate the free [3H]-norepinephrine. The radioactivity associated to the synaptosomes retained onto the unifilter corresponding to the uptake is then measured with a microplate scintillation counter Topcount, Packard using a scintillation liquid microscint 0, Packard.
[See Perovics and Müller, op.cit. (1995).]

For the next data set, the target named is α1 Receptor. In words: α1 receptor binding. To be noted: read-out: α1 Receptor Binding IC50, Alpha1.
In a further data set the test system is serotonin uptake. In words: Serotonin uptake functional assay (rat cortex synaptosomes). Type of data set: biochemical. To be noted: for IC50: rat cortex synaptosomes, read-out: Monoamine Neuronal Transport IC50, 5-HT Uptake. As for the experimental part: Characterization of serotonin uptake is performed using synaptosomes isolated in a 0.32 M sucrose buffer from a male Wistar rat cortex. The uptake of radiolabelled serotonin by synaptosomes (100 μg of proteins/point) is allowed by incubating them for 15 minutes at 37° C. in presence of test compounds and [3H]5-hydroxytryptamin (0.1 μCi/point). The experiment is performed in a deep well.
Synaptosomes and [3H]5-hydroxytryptamin are prepared in a Krebs buffer pH 7.4 containing 25 mM NaHCO3, 11 mM glucose and 50 μM ascorbic acid. This incubation buffer is oxygenated during 5 minutes before incubation. Basal control is incubated for 15 minutes at 4° C. in order to avoid any uptake. Following this incubation the uptake is stopped by filtration through an “unifilter 96-wells GFB” Packard plate washed with Krebs buffer containing 25 mM NaHCO3 in order to eliminate the free [3H]5-hydroxytrptamin. The radioactivity associated to the synaptosomes retained onto the unifilter corresponding to the uptake is then measured with a microplate scintillation counter Topcount, Packard using a scintillation liquid microscint 0, Packard.
[See Perovics and Müller “Pharmacological profile of hypericum extract: effect on serotonin uptake by postsynaptic receptors”, Arzeim.

Another data set concerns the target CYP3A4 (Homo sapiens, UniProt P08684). In words: CYP450 inhibition, CYP3A4 BZRes. In kind it is in vitro ADME. To be noted: parameter and unit inferred.
The next data set addresses T1, CYP1A2 (Homo sapiens, UniProt P05177).
T1 sequence (P05177 1-516): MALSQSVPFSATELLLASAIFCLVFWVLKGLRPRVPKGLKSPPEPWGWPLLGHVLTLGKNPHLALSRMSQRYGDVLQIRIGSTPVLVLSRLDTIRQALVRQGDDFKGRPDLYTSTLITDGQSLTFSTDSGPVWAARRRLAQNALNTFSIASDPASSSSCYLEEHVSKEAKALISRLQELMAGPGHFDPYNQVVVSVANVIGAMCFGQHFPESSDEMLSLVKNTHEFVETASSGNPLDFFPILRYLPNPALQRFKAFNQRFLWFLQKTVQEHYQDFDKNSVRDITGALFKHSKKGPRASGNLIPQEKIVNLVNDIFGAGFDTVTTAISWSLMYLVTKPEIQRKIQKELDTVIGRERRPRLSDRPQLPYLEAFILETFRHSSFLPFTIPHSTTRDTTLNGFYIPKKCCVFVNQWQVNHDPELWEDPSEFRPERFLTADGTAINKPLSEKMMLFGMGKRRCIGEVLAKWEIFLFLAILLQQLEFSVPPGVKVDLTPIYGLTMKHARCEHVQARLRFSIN
Description: CYP450 inhibition, CYP1A2. Type of data set: in vitro ADME. To be noted: parameter and unit inferred.

The next data set deals with T2, Human D2 Receptor (Homo sapiens, UniProt P14416).
T2 construct: expressed in transfected cells; host or cells: A9L cells
In words: Human D2 receptor binding ([3H]spiperone). To be noted: comment on Table 1. Here is the method: (§1) Dopamine and serotonin receptor binding assays were performed in a standard manner with the incubation of membrane preparations in an assay buffer in the presence of a known radioactively labeled specific ligand for the receptor subtypes. Nonspecific binding was determined by assessing binding in the presence of excess ligand. Specific binding was measured as the total labeled ligand bound after the nonspecific binding was subtracted. The effect of the tested agents was measured by determining the competition for the receptor binding across a concentration range. Subsequently, an IC50 was determined for the agents tested. More specific details are provided below for several of the assays performed.
Aliquots of transfected A9L cell membrane preparations corresponding to 20-40 μg protein are incubated for 60 min at 22° C. in 250 μL of 50 mM Tris-HCl buffer (pH 7.4) containing 120 mM NaCl, 5 mM KCl, 5 mM MgCl2, 1 mM EDTA, 0.3 nM [^3H]spiperone and increasing concentrations of the competing drugs. Nonspecific binding is determined in the presence of 10 μM (+)butaclamol. […] Bound radioactivity is measured with a scintillation counter (Topcount, Packard) using a liquid-scintillation cocktail (Microscint 0, Packard). […]

Another data set addresses CYP2C19 (Homo sapiens, UniProt P33261). Description: CYP450 inhibition, CYP2C19. Type of data set: in vitro ADME. To be noted: parameter and unit inferred.
For a further data set, the target named is T3, Human 5-HT2A Receptor (Homo sapiens, UniProt P28223).
T3 construct: expressed in transfected cells; host or cells: CHO cells
In words: Human 5-HT2A receptor binding ([3H]ketanserin). To be noted: comment on Table 2. As for the experimental part: as §1
Nonspecific binding is determined in the presence of 1 μM ketanserin. […] Bound radioactivity is measured with a scintillation counter (Topcount, Packard) using a liquid scintillation cocktail (Microscint 0, Packard). The reference compound for this assay is ketanserin.

The conditions of data set [1]: immediate-release tablets; first-pass metabolism; cited from earlier work.

T2 sequence (P14416 whole entry): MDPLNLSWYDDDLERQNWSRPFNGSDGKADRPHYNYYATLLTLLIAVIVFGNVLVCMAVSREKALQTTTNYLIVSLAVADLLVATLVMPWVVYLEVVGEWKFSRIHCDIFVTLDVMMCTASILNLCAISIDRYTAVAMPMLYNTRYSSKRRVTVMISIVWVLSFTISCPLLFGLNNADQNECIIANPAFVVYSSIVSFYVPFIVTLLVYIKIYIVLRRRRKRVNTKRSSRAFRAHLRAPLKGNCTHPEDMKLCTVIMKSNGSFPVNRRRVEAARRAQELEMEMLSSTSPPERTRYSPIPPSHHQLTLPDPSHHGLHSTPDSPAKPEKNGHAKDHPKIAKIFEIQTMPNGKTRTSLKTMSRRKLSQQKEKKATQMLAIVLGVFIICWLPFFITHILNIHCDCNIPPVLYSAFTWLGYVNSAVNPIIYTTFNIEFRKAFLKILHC
T3 sequence (P28223 whole entry): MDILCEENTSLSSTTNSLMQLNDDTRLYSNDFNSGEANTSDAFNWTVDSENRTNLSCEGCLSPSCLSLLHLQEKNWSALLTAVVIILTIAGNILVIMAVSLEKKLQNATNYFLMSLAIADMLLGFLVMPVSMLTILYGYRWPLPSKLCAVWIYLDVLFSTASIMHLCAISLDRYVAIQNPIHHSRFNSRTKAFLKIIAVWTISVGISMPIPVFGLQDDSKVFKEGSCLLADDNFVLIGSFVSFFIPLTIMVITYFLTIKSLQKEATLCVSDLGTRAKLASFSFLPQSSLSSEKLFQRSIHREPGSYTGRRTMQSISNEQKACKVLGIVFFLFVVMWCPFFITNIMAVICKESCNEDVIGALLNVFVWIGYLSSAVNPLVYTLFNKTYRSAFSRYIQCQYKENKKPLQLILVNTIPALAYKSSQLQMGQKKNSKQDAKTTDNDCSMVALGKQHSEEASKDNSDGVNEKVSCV
CYP2C19, sequence (P33261 whole entry): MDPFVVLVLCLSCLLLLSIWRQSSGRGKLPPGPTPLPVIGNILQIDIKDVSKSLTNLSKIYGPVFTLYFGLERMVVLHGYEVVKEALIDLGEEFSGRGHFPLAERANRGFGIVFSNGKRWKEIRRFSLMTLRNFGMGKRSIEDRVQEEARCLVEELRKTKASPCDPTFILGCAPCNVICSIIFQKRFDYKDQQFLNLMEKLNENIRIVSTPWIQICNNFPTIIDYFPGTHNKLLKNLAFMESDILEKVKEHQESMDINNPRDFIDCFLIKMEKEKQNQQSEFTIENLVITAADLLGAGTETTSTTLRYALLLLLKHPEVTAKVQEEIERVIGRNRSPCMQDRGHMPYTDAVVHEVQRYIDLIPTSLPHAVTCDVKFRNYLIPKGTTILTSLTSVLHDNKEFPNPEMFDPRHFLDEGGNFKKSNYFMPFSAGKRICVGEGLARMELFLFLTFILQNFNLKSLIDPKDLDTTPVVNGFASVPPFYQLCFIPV
CYP3A4, sequence (P08684 whole entry): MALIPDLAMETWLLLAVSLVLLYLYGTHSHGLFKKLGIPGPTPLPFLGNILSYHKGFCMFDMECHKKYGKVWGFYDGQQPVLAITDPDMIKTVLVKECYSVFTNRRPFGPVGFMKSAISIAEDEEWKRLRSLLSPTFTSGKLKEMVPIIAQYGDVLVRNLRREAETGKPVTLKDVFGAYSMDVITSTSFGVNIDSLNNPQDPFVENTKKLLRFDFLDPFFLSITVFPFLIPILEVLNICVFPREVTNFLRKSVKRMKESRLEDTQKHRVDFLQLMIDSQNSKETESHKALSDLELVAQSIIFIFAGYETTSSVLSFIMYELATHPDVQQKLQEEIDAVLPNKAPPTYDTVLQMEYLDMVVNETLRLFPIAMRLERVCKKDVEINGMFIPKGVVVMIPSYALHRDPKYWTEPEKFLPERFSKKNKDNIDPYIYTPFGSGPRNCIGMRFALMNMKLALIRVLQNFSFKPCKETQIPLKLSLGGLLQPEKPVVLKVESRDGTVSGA

Take `CC(O)c1nn(CCCN2CCN(c3cccc(Cl)c3)CC2)c(=O)n1CCOc1ccccc1` (racemic) [(RS)—OH, hydroxynefazodone]: the IC50 with norepinephrine uptake came out at 1000 nM; on α1 Receptor, 381 nM; in the data set on serotonin uptake, 500 nM.
In the case of `C[C@@H](O)c1nn(CCCN2CCN(c3cccc(Cl)c3)CC2)c(=O)n1CCOc1ccccc1` [(R)—OH, (R)-Hydroxynefazodone], the IC50 was over 200 µM against CYP3A4; 1200 nM in the data set on norepinephrine uptake; 367 nM on α1 Receptor; over 200 µM at CYP1A2; 640 nM in the data set on serotonin uptake.
As to `C[C@H](O)c1nn(CCCN2CCN(c3cccc(Cl)c3)CC2)c(=O)n1CCOc1ccccc1` [(S)—OH], the IC50 at α1 Receptor was 419 nM; at CYP2C19, over 200 µM; against CYP1A2, over 200 µM; in the data set on serotonin uptake, 790 nM. For the same compound, at Human D2 Receptor, the “Affinity for the D2 receptor (in words)” value was “excellent affinity”. Moreover, the “Affinity for 5HT2A receptors (in words)” value at Human 5-HT2A Receptor is on record as “highest affinity”. The “Activity in inhibiting serotonin uptake (in words)” value with serotonin uptake (comment on Table 4) is “least active enantiomer”.
In the case of `CCc1nn(CCCN2CCN(c3cccc(Cl)c3)CC2)c(=O)n1CCOc1ccccc1` [Nefazodone, 2-[3-[4-(3-chlorophenyl)-1-piperazinyl]-propyl-]5-ethyl-2,4-dihydro-4-(2-phenoxy-ethyl)-3H-1,2,4-triazol-3-one, reference compound], the IC50 with norepinephrine uptake is 1200 nM; on α1 Receptor, 306 nM; against CYP1A2, over 200 µM; with serotonin uptake it was 200 nM. In addition, the Bioavailability result in data set [1] is reported as “approximately 20%”.
